Measured values reported in ChEMBL document CHEMBL1147899, “Raman, FT-IR, NMR spectroscopic data and antimicrobial activity of bis[micro2-(benzimidazol-2-yl)-2-ethanethiolato-N,S,S-chloro-palladium(II)] dimer, [(micro2-CH2CH2NHNCC6H4)PdCl]2.C2H5OH complex” (2007).
≈ marks a conversion by molar mass, not a printed value.

Experiments:
[1] = tested on: Debaryomyces hansenii; experiment: Antifungal activity against Debaryomyces hansenii DSM 70238 after 48 hrs by dilution method; assay type: functional
[2] = tested on: Listeria monocytogenes; experiment: Antibacterial activity against Listeria monocytogenes ATCC 15313 after 24 hrs by dilution method; assay type: functional
[3] = tested on: Candida albicans; experiment: Antifungal activity against Candida albicans ATCC 10231 after 72 hrs by disk diffusion method; assay type: functional
[4] = tested on: Staphylococcus aureus; experiment: Antibacterial activity against Staphylococcus aureus ATCC 6538 after 24 hrs by dilution method; assay type: functional
[5] = tested on: Hanseniaspora guilliermondii; experiment: Antifungal activity against Hanseniaspora guilliermondii DSM 3432 after 72 hrs by disk diffusion method; assay type: functional
[6] = tested on: Kluyveromyces marxianus; experiment: Antifungal activity against Kluyveromyces fragilis NRRL 2415 after 48 hrs by dilution method; assay type: functional
[7] = tested on: Listeria monocytogenes; experiment: Antibacterial activity against Listeria monocytogenes ATCC 15313 after 24 hrs by disk diffusion method; assay type: functional
[8] = tested on: Proteus vulgaris; experiment: Antibacterial activity against Proteus vulgaris ATCC 8427 by after 24 hrs dilution method; assay type: functional
[9] = tested on: Klebsiella pneumoniae; experiment: Antibacterial activity against Klebsiella pneumoniae UC57 after 24 hrs by disk diffusion method; assay type: functional
[10] = tested on: Bacillus cereus; experiment: Antibacterial activity against Bacillus cereus ATCC 7064 after 24 hrs by disk diffusion method; assay type: functional
[11] = tested on: Rhodotorula mucilaginosa; experiment: Antifungal activity against Rhodotorula rubra DSM 70403 after 72 hrs by disk diffusion method; assay type: functional
[12] = tested on: Staphylococcus aureus; experiment: Antibacterial activity against Staphylococcus aureus ATCC 6538 after 24 hrs by disk diffusion method; assay type: functional
[13] = tested on: Pseudomonas aeruginosa; experiment: Antibacterial activity against Pseudomonas aeruginosa ATCC 27853 after 24 hrs by dilution method; assay type: functional
[14] = tested on: Candida albicans; experiment: Antifungal activity against Candida albicans ATCC 10231 after 48 hrs by dilution method; assay type: functional
[15] = tested on: Pseudomonas aeruginosa; experiment: Antibacterial activity against Pseudomonas aeruginosa ATCC 27853 after 24 hrs by disk diffusion method; assay type: functional
[16] = tested on: Escherichia coli; experiment: Antibacterial activity against Escherichia coli ATCC 11230 after 24 hrs by disk diffusion method; assay type: functional
[17] = tested on: Hanseniaspora guilliermondii; experiment: Antifungal activity against Hanseniaspora guilliermondii DSM 3432 after 48 hrs by dilution method; assay type: functional
[18] = tested on: Mycolicibacterium smegmatis; experiment: Antibacterial activity against Mycobacterium smegmatis CCM 2067 after 24 hrs by disk diffusion method; assay type: functional
[19] = tested on: Mycolicibacterium smegmatis; experiment: Antibacterial activity against Mycobacterium smegmatis CCM 2067 after 24 hrs by dilution method; assay type: functional
[20] = tested on: Proteus vulgaris; experiment: Antibacterial activity against Proteus vulgaris ATCC 8427 after 24 hrs by disk diffusion method; assay type: functional
[21] = tested on: Klebsiella pneumoniae; experiment: Antibacterial activity against Klebsiella pneumoniae UC57 after 24 hrs by dilution method; assay type: functional
[22] = tested on: Micrococcus luteus; experiment: Antibacterial activity against Micrococcus luteus La 2971 after 24 hrs by disk diffusion method; assay type: functional
[23] = tested on: Rhodotorula mucilaginosa; experiment: Antifungal activity against Rhodotorula rubra DSM 70403 after 48 hrs by dilution method; assay type: functional
[24] = tested on: Bacillus cereus; experiment: Antibacterial activity against Bacillus cereus ATCC 7064 after 24 hrs by dilution method; assay type: functional
[25] = tested on: Debaryomyces hansenii; experiment: Antifungal activity against Debaryomyces hansenii DSM 70238 after 72 hrs by disk diffusion method; assay type: functional
[26] = tested on: Micrococcus luteus; experiment: Antibacterial activity against Micrococcus luteus La 2971 after 24 hrs by dilution method; assay type: functional
[27] = tested on: Escherichia coli; experiment: Antibacterial activity against Escherichia coli ATCC 11230 after 24 hrs by dilution method; assay type: functional
[28] = tested on: Kluyveromyces marxianus; experiment: Antifungal activity against Kluyveromyces fragilis NRRL 2415 after 72 hrs by disk diffusion method; assay type: functional
[29] = tested on: Staphylococcus aureus; experiment: Antibacterial activity against Staphylococcus aureus ATCC 6538 at 30 ug after 24 hrs by disk diffusion method; assay type: functional; conditions: ATCC 6538, 24 h, read-out: IZ
[30] = tested on: Escherichia coli; experiment: Antibacterial activity against Escherichia coli ATCC 11230 at 30 ug after 24 hrs by disk diffusion method; assay type: functional; conditions: ATCC 11230, 24 h, read-out: IZ
[31] = tested on: Mycolicibacterium smegmatis; experiment: Antibacterial activity against Mycobacterium smegmatis CCM 2067 at 30 ug after 24 hrs by disk diffusion method; assay type: functional; conditions: CCM 2067, 24 h, read-out: IZ
[32] = tested on: Pseudomonas aeruginosa; experiment: Antibacterial activity against Pseudomonas aeruginosa ATCC 27853 at 30 ug after 24 hrs by disk diffusion method; assay type: functional; conditions: ATCC 27853, 24 h, read-out: IZ
[33] = tested on: Listeria monocytogenes; experiment: Antibacterial activity against Listeria monocytogenes ATCC 15313 at 30 ug after 24 hrs by disk diffusion method; assay type: functional; conditions: ATCC 15313, 24 h, read-out: IZ
[34] = tested on: Micrococcus luteus; experiment: Antibacterial activity against Micrococcus luteus La 2971 at 30 ug by disk diffusion method; assay type: functional; conditions: read-out: IZ
[35] = tested on: Proteus vulgaris; experiment: Antibacterial activity against Proteus vulgaris ATCC 8427 at 30 ug after 24 hrs by disk diffusion method; assay type: functional; conditions: ATCC 8427, 24 h, read-out: IZ
[36] = tested on: Klebsiella pneumoniae; experiment: Antibacterial activity against Klebsiella pneumoniae UC57 at 30 ug after 24 hrs by disk diffusion method; assay type: functional; conditions: read-out: IZ
[37] = tested on: Bacillus cereus; experiment: Antibacterial activity against Bacillus cereus ATCC 7064 at 30 ug after 24 hrs by disk diffusion method; assay type: functional; conditions: ATCC 7064, 24 h, read-out: IZ
[38] = tested on: Debaryomyces hansenii; experiment: Antifungal activity against Debaryomyces hansenii DSM 70238 at 100 ug after 72 hrs by disk diffusion method; assay type: functional, organism-based
[39] = tested on: Hanseniaspora guilliermondii; experiment: Antifungal activity against Hanseniaspora guilliermondii DSM 3432 at 100 ug after 72 hrs by disk diffusion method; assay type: functional, organism-based
[40] = tested on: Rhodotorula mucilaginosa; experiment: Antifungal activity against Rhodotorula rubra DSM 70403 at 100 ug after 72 hrs by disk diffusion method; assay type: functional, organism-based
[41] = tested on: Kluyveromyces marxianus; experiment: Antifungal activity against Kluyveromyces fragilis NRRL 2415 at 100 ug after 72 hrs by disk diffusion method; assay type: functional, organism-based

In the case of `Cl.c1ccc2[nH]c(CCSSCCc3nc4ccccc4[nH]3)nc2c1`, the MIC ([1]; DSM 70238, 48 h) is reported as 12.5 mg/L, the MIC ([2]; ATCC 15313, 24 h) is reported as 12.5 mg/L and the “inhibition zone (IZ)” value [3] is reported as 17 mm. For the same compound, the MIC ([4]; ATCC 6538, 24 h) was 12.5 mg/L, the “inhibition zone (IZ)” value [5] was 16 mm and the MIC ([6]; NRRL 2415, 48 h) was 3.12 mg/L. For the same compound, the “inhibition zone (IZ)” value [7] was 12 mm, the MIC ([8]; ATCC 8427, 24 h) was 6.25 mg/L and the “inhibition zone (IZ)” value [9] was 12 mm. For the same compound, the “inhibition zone (IZ)” value [10] was 12 mm, the “inhibition zone (IZ)” value [11] was 15 mm and the “inhibition zone (IZ)” value [12] was 16 mm. The MIC ([13]; ATCC 27853, 24 h) was 25 mg/L, the MIC ([14]; ATCC 10231, 48 h) was 6.25 mg/L and the “inhibition zone (IZ)” value [15] was 12 mm. The “inhibition zone (IZ)” value [16] was 14 mm, the MIC ([17]; DSM 3432, 48 h) was 6.25 mg/L and the “inhibition zone (IZ)” value [18] was 16 mm. For the same compound, the MIC ([19]; CCM 2067, 24 h) was 6.25 mg/L, the “inhibition zone (IZ)” value [20] was 16 mm and the MIC [21] was 25 mg/L. The “inhibition zone (IZ)” value [22] was 14 mm, the MIC ([23]; DSM 70403, 48 h) was 12.5 mg/L and the MIC ([24]; ATCC 7064, 24 h) was 50 mg/L. The “inhibition zone (IZ)” value [25] was 14 mm, the MIC [26] was 12.5 mg/L and the MIC ([27]; ATCC 11230, 24 h) was 12.5 mg/L. The “inhibition zone (IZ)” value [28] was 18 mm.
In the case of `CN(C)[C@@H]1C(O)=C(C(N)=O)C(=O)[C@@]2(O)C(O)=C3C(=O)c4c(O)cccc4[C@@](C)(O)[C@H]3C[C@@H]12` [TETRACYCLINE], the zone of inhibition at 30 µg/disc [29] is reported as 26 mm, the zone of inhibition at 30 µg/disc [30] is reported as 28 mm and the zone of inhibition at 30 µg/disc [31] is reported as 24 mm. It also gave a zone of inhibition at 30 µg/disc [32] of 34 mm, a zone of inhibition at 30 µg/disc [33] of 28 mm and a zone of inhibition at 30 µg/disc [34] of 2 mm. The zone of inhibition at 30 µg/disc [35] was 26 mm, the zone of inhibition at 30 µg/disc [36] was 30 mm and the zone of inhibition at 30 µg/disc [37] was 25 mm.
Compound `CO/N=C(\C(=O)N[C@@H]1C(=O)N2C(C(=O)O)=C(COC(C)=O)CS[C@H]12)c1csc(N)n1` [CEFOTAXIME] has a zone of inhibition at 30 µg/disc [29] of 12 mm, a zone of inhibition at 30 µg/disc [30] of 10 mm and a zone of inhibition at 30 µg/disc [31] of 11 mm. The zone of inhibition at 30 µg/disc [33] was 16 mm, the zone of inhibition at 30 µg/disc [34] was 32 mm and the zone of inhibition at 30 µg/disc [35] was 18 mm. For the same compound, the zone of inhibition at 30 µg/disc [36] was 13 mm and the zone of inhibition at 30 µg/disc [37] was 14 mm.
GENTAMICIN was tested, and the MIC [2] was 12.5 mg/L, the MIC [4] was 25 mg/L and the MIC [8] was 6.25 mg/L. The MIC [13] was 6.25 mg/L, the MIC [19] was 12.5 mg/L and the MIC [21] was 6.25 mg/L. For the same compound, the MIC [24] was 6.25 mg/L, the MIC [26] was 25 mg/L and the MIC [27] was 6.25 mg/L.
Compound NYSTATIN has an MIC [1] of 12.5 mg/L, an MIC [6] of 6.25 mg/L and an inhibition zone (IZ) [38] of 16 mm. For the same compound, the MIC [14] was 3.12 mg/L, the MIC [17] was 3.12 mg/L and the inhibition zone (IZ) [39] was 21 mm. The inhibition zone (IZ) [40] was 18 mm, the inhibition zone (IZ) [41] was 18 mm and the MIC [23] was 6.25 mg/L.
For `c1ccc2[nH]c(CCSSCCc3nc4ccccc4[nH]3)nc2c1`, the MIC ([1]; DSM 70238, 48 h) was 25 mg/L (≈ 70.5 µM), the MIC ([2]; ATCC 15313, 24 h) was 12.5 mg/L (≈ 35.3 µM) and the “inhibition zone (IZ)” value [3] was 14 mm. For the same compound, the MIC ([4]; ATCC 6538, 24 h) was 12.5 mg/L (≈ 35.3 µM), the “inhibition zone (IZ)” value [5] was 12 mm and the MIC ([6]; NRRL 2415, 48 h) was 6.25 mg/L (≈ 17.6 µM). The “inhibition zone (IZ)” value [7] was 13 mm, the MIC ([8]; ATCC 8427, 24 h) was 12.5 mg/L (≈ 35.3 µM) and the “inhibition zone (IZ)” value [9] was 11 mm. The “inhibition zone (IZ)” value [10] was 10 mm, the “inhibition zone (IZ)” value [11] was 12 mm and the “inhibition zone (IZ)” value [12] was 14 mm. The MIC ([13]; ATCC 27853, 24 h) was 50 mg/L (≈ 141 µM), the MIC ([14]; ATCC 10231, 48 h) was 12.5 mg/L (≈ 35.3 µM) and the “inhibition zone (IZ)” value [15] was 11 mm. For the same compound, the “inhibition zone (IZ)” value [16] was 12 mm, the MIC ([17]; DSM 3432, 48 h) was 12.5 mg/L (≈ 35.3 µM) and the “inhibition zone (IZ)” value [18] was 13 mm. For the same compound, the MIC ([19]; CCM 2067, 24 h) was 12.5 mg/L (≈ 35.3 µM), the “inhibition zone (IZ)” value [20] was 14 mm and the MIC [21] was 50 mg/L (≈ 141 µM). For the same compound, the “inhibition zone (IZ)” value [22] was 12 mm, the MIC ([23]; DSM 70403, 48 h) was 25 mg/L (≈ 70.5 µM) and the MIC ([24]; ATCC 7064, 24 h) was 100 mg/L (≈ 282 µM). For the same compound, the “inhibition zone (IZ)” value [25] was 11 mm, the MIC [26] was 25 mg/L (≈ 70.5 µM) and the MIC ([27]; ATCC 11230, 24 h) was 50 mg/L (≈ 141 µM). The “inhibition zone (IZ)” value [28] was 15 mm.
